{"source": "patent US10004809B2", "about": "“Precise delivery of therapeutic agents to cell mitochondria for anti-cancer therapy” (UNIVERSITY OF GEORGIA RESEARCH FOUNDATION, INC., priority 2013, dated 2018)", "format_in_all_cases": "cell-based, Human", "key": {"PC3 cells [1]": {"system": "PC3 cells", "assay": "Intracellular lactate determination", "conditions": "concentration not given", "source_text": "Cytosolic metabolism of glucose to pyruvate occurs before its entry into mitochondria for oxidative phosphorylation. However, if not metabolized through oxidative phosphorylation as found in cancer, pyruvate gets converted by lactate dehydrogenase through glycolysis to lactate. Glycolysis in the absence of oxidative phosphorylation in cancer causes rise in lactate concentration. To test the ability of MITO-DCA to switch glucose metabolism from glycolysis to oxidative phosphorylation in cancer cells, intracellular lactate levels in glycolytic PC3 cells were measured and compared the value with those observed in less glycolytic LNCaP and normal MSC cells (FIG. 5A). To understand the importance of mitochondria targeting ligand and to explore the importance of a Tris platform to increase number of DCA molecule per targeting ligand, the parent drug Na-DCA and TPP-DCA were used as controls. Treatment of PC3 cells with 50 μM of MITO-DCA for 6 h reduced the intracellular lactate levels by 58±5%. […] Pronounced lactate concentration differences were observed between […] glycolytic PC3 and healthy MSC cells (FIG. 5A). […] None of the DCA compounds has any effect on the lactate levels in MSC cells (FIG. 5A).\nPC3, LNCaP, and MSC cells were seeded at a density of 1×10^6 cells/mL on each well of a 12 well plate and allowed to grow overnight at 37° C. under 5% CO2. Cells were treated with 150 μM Na-DCA, 150 μM TPP-DCA, and 50 μM MITO-DCA for 6 h at 37° C. After 6 h, the media was removed and the cells were homogenized. The lysate was added to the enzyme and substrate working reagent mixture and incubated for 30 min. Lactate concentration was measured using Bio-Tek Synergy HT microplate reader at 450 nm and comparing to a standard curve."}, "LNCaP cells": {"system": "LNCaP cells", "assay": "MTT cytotoxicity assay", "conditions": "LNCaP cells, MTT", "description": "(§1) The cytotoxic behaviors of MITO-DCA, TPP-DCA, Na-DCA, and TPP-Tris-(OH)3 were evaluated using the MTT assay against PC3, DU145, LNCaP, and MSC cells. Cells (2000 cells/well for PC3, DU145, and MSC cells; 5000 cells/well for LNCaP) were seeded on a 96-well plate in 100 μL of desired medium and incubated for 24 h. The cells were treated with different DCA compounds and TPP-Tris-(OH)3 at varying concentrations and incubated for 72 h at 37° C. The cells were then treated with 20 μL of MTT (5 mg/mL in PBS) for 5 h. The medium was removed, the cells were lysed with 100 μL of DMSO, and the absorbance of the purple tormazan was recorded at 550 nm using a Bio-Tek Synergy HT microplate reader. Each well was performed in triplicate. All experiments were repeated three times. Cytotoxicity was expressed as mean percentage increase relative to the unexposed control±SD. Control values were set at 0% cytotoxicity or 100% cell viability. Cytotoxicity data (where appropriate) was fitted to a sigmoidal curve and a three parameters logistic model used to calculate the IC50, which is the concentration of chemotherapeutics causing 50% inhibition in comparison to untreated controls. The mean IC50 is the concentration of agent that reduces cell growth by 50% under the experimental conditions and is the average from at least three independent measurements that were reproducible and statistically significant. The IC50 values were reported at ±99% confidence intervals. This analysis was performed with GraphPad Prism (San Diego, U.S.A)."}, "PC3 cells [2]": {"system": "PC3 cells", "assay": "MTT cytotoxicity assay", "conditions": "PC3 cells, MTT", "description": "as §1"}, "DU145 cells": {"system": "DU145 cells", "assay": "MTT cytotoxicity assay", "conditions": "DU145 cells, MTT", "description": "as §1"}, "MSC cells": {"system": "MSC cells", "assay": "MTT cytotoxicity assay on normal cells", "conditions": "72 h", "description": "as §1"}}}
{"smiles": "O=C(CCCCC[P+](c1ccccc1)(c1ccccc1)c1ccccc1)NC(CO)(CO)CO.[Br-]", "note": "[TPP-Tris-(OH)3]", "values": [{"measurement": "Effect on intracellular lactate levels", "setting": "PC3 cells [1]", "result": "did not show any effect"}, {"measurement": "Toxic effects (cytotoxicity profile)", "setting": "LNCaP cells", "result": "did not show any toxic effects"}, {"measurement": "Toxic effects (cytotoxicity profile)", "setting": "PC3 cells [2]", "result": "did not show any toxic effects"}, {"measurement": "Toxic effects (cytotoxicity profile)", "setting": "DU145 cells", "result": "did not show any toxic effects"}, {"measurement": "Toxicity in normal MSC cells", "setting": "MSC cells", "result": "did not show any toxic effects"}]}
